According to patent US20100184708A1, “USE OF GLY-PRO-GLU-OH (GPE) AS A THERAPEUTIC AGENT” (priority 2007, published 2010):

System: drug-resistant Mycobacterium tuberculosis
Settings: peptide 10 micrograms per ml, seven days

Structure (SMILES): NCC(=O)N1CCC[C@H]1C(=O)N[C@@H](CCC(=O)O)C(=O)O [IGF-I (1-3), Gly-Pro-Glu-OH]
- % inhibition: 0.0%
